Data taken from ChEMBL document CHEMBL1201862, “PubChem BioAssay data set” (2004).
The source made the active and inactive calls.

Columns and labels:
[1] = molecular target: SWI/SNF-related matrix-associated actin-dependent regulator of chromatin subfamily A member 2 (Homo sapiens, UniProt P51531); assay: Luminescence-based cell-based high throughput dose response assay to identify activators of the function of SWI/SNF related, matrix associated, actin dependent regulator of chromatin, subfamily a, member 2 (SMARCA2, BRM).; format: functional
[2] = Counterscreen for activators of the function of SWI/SNF related, matrix associated, actin dependent regulator of chromatin, subfamily a, member 2 (SMARCA2, BRM): Luminescence-based cell-based high throughput dose response assay to identify non-selective compounds using the VP16 reporter assay.; format: functional
[3] = general mammalian cell viability loss – inhibitor set, cherry-pick, set 2, cytotoxicity control for miR-122 modulator project, dose response (AID 720697); format: functional, cell-based
[4] = general mammalian cell viability loss – activator set, cherry-pick, cytotoxicity control for miR-122 modulator project, dose response (AID 720690); format: functional, cell-based;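 further: HEK293T human cells scored for general mammalian cytotoxicity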
[5] = activation of miR-122 Renilla sensor silencing – cell-based, Huh7 psiCHECK-miR122, Renilla luciferase, cherry-picked, dose response (AID 651956); format: functional;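 further: huh7 hepatoma cells stably carrying a psiCHECK-2 miR-122 sensor plasmid; renilla luciferase signal reporting endogenous miR-122 activity after 48 h compound exposure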
[6] = molecular target: Tyrosyl-DNA phosphodiesterase 2 (Homo sapiens, UniProt O95551); assay: potency against TDP2 phosphodiesterase activity – biochemical, epi absorbance, IC50, dose response (AID 743297)
[7] = T. cruzi growth inhibition in host cells, dose response, cell-based, plate reader, dry powder, set 2 (AID 652275); format: functional
[8] = inhibition of bursicon-driven LGR2 cAMP signaling – cell-based, HEK293, CRE-luciferase reporter, cherry pick, dose response (AID 743342); format: functional
[9] = viability loss in HEK293 cells – cell-based, plate reader, cherry-picked samples, cytotoxicity control, dose response (AID 743446); format: functional
[10] = A549 cell cytotoxicity, dose response, cytotoxicity control, plate reader, cherry-pick, antagonist series (AID 743412); format: functional, cell-based
[11] = molecular target: T1, Induced myeloid leukemia cell differentiation protein Mcl-1 (Homo sapiens, UniProt Q07820); format: functional
[12] = molecular target: T2, Small ubiquitin-related modifier 1 (Homo sapiens, UniProt P63165); assay: SUMO1 protein-protein binding blockers, potency – biochemical, FRET, dose response (AID 624383); format: functional; settings: read-out: IC50_Mean
Bcl-2-like protein 1 = Bcl-2-like protein 1 (Homo sapiens, UniProt Q07817); assay: blockers of BCLXL peptide binding – biochemical, fluorescence polarization, 1536-well, selectivity assay for MCL1 inhibitor project, dose response (AID 2218)
[13] = molecular target: T3, Tyrosine-protein phosphatase non-receptor type 7 (Homo sapiens, UniProt P35236); assay: HePTP tyrosine phosphatase activity blockers – biochemical, absorbance, leukemia target, primary screen (AID 521); format: functional
T3 sequence (P35236 whole entry): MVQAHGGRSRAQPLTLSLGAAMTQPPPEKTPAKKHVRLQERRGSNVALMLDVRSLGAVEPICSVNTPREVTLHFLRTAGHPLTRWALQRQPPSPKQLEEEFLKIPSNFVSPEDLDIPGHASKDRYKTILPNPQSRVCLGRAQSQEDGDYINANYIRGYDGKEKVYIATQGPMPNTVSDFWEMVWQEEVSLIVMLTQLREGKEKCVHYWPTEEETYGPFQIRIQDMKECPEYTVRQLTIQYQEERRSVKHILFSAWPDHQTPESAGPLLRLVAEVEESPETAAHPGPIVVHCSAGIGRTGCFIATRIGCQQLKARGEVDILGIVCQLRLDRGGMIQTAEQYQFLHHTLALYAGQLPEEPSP

[14] = molecular target: T2, Small ubiquitin-related modifier 1; assay: SUMO1 protein interaction blockers, potency – biochemical, fluorescence polarization, uHTS hits, dose response (AID 624382); format: functional; settings: read-out: IC50_Mean
[15] = molecular target: T4, Carboxy-terminal domain RNA polymerase II polypeptide A small phosphatase 1 (Homo sapiens, UniProt Q9GZU7); assay: CTDSP1 inhibitors, concentration-response, biochemical, absorbance readout, ultra-high-throughput screen actives (AID 540297); format: functional
T4 sequence (Q9GZU7 whole entry): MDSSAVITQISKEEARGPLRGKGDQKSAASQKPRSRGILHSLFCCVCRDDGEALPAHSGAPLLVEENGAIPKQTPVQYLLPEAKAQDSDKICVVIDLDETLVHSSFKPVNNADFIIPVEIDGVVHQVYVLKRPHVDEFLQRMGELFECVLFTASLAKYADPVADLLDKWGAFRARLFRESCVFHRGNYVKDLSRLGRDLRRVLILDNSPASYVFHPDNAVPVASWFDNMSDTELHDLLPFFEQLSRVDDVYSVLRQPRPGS

[16] = molecular target: T1, Induced myeloid leukemia cell differentiation protein Mcl-1; assay: blockers of MCL1 binding to BIM peptide – biochemical, fluorescence polarization, BIM-BH3 peptide, 1536-well, dose response (AID 2217)

T2 sequence (P63165 whole entry): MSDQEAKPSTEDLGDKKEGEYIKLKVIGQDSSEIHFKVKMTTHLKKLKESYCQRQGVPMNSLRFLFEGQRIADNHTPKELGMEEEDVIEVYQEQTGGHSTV
SWI/SNF-related matrix-associated actin-dependent regulator of chromatin subfamily A member 2, sequence (P51531 whole entry): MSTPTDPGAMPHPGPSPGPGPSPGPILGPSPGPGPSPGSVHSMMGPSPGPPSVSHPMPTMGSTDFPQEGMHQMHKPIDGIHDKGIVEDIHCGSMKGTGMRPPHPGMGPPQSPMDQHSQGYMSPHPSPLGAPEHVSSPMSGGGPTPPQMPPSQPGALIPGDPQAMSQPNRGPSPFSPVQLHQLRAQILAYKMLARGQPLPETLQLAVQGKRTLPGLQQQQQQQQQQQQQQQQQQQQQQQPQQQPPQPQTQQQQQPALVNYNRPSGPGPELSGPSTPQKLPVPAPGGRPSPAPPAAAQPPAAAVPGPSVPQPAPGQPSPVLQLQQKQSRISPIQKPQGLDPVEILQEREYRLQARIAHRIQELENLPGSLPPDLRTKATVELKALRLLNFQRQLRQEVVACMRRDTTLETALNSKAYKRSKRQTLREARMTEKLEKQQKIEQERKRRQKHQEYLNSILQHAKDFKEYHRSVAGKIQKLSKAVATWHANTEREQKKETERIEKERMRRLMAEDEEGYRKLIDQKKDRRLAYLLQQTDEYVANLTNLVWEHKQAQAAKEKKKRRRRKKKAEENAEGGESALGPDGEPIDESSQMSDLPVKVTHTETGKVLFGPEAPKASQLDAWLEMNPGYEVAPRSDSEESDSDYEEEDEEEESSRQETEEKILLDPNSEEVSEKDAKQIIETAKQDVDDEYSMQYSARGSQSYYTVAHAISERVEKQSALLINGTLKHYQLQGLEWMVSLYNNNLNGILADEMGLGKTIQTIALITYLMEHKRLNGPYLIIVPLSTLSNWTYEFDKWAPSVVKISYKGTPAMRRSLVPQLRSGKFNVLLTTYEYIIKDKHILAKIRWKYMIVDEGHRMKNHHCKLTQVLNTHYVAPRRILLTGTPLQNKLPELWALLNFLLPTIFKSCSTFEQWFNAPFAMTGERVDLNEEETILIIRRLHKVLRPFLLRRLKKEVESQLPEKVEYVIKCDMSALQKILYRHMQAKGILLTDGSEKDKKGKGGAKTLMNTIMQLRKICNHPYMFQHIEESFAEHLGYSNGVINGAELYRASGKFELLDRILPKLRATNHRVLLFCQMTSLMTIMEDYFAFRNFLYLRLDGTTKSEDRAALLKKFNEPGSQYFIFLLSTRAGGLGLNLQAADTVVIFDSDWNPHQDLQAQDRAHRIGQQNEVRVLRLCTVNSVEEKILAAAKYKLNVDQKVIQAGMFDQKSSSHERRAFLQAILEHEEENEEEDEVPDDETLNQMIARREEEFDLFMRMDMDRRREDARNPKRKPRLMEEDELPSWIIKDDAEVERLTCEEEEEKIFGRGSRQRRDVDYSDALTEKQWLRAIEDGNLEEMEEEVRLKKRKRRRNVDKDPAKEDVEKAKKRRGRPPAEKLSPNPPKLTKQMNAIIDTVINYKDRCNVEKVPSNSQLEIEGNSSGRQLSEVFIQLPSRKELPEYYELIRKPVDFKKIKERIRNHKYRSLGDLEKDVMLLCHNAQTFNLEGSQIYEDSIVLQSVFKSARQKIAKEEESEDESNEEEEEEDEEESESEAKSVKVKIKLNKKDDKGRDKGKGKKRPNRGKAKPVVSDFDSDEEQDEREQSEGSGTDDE
T1 sequence (Q07820 whole entry): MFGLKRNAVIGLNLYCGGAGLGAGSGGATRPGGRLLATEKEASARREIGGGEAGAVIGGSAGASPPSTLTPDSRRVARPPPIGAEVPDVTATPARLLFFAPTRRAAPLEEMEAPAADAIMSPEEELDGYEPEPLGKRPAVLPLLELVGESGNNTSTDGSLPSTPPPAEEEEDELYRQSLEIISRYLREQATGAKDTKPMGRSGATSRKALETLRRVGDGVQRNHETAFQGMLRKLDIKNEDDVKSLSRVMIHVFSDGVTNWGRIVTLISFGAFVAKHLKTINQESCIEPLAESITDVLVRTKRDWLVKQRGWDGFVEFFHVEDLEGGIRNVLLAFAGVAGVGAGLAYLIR
Bcl-2-like protein 1, sequence (Q07817 whole entry): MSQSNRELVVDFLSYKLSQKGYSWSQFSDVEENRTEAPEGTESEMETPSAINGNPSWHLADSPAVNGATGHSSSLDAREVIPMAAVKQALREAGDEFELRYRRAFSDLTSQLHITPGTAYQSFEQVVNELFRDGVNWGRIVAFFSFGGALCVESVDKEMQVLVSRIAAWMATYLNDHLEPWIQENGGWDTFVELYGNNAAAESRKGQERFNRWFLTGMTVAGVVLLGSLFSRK
Tyrosyl-DNA phosphodiesterase 2, sequence (O95551 whole entry): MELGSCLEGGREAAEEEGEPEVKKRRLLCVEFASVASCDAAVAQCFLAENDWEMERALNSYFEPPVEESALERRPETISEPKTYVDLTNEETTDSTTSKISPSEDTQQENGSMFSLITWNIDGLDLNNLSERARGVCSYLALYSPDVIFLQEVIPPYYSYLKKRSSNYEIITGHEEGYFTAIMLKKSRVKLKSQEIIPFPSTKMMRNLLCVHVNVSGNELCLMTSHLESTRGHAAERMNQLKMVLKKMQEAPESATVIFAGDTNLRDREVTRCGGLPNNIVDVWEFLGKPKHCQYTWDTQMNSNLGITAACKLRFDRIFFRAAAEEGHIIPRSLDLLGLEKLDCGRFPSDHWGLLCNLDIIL

Q: Which results are given for `CC(=O)Nc1cc(-c2ccc(N3CCN(C)CC3)cc2)cn2c(-c3ccc(F)cc3)cnc12`?
A: EC50 [1]: > 91.2 µM (inactive); EC50 [2]: > 91.2 µM (inactive)

Q: With `C[C@@H]1CCCCO[C@@H](CN(C)CC2CCCCC2)[C@H](C)CN([C@H](C)CO)C(=O)c2cc(NC(=O)Nc3cccc4ccccc34)ccc2O1` as the compound, how does the AC50 [3] read?
A: 13.8 µM (active)

Q: And the AC50 [4]?
A: 14.8 µM (active)

Q: And the AC50 [5]?
A: 7.47 µM (active)

Q: What does the source list for `CC(C)(C)NC(=O)C(CCc1ccccc1)n1c(=O)c(-c2ccccc2)nc2ccccc21` (configuration not stated)?
A: EC50 [1]: > 91.1 µM (inactive); EC50 [2]: > 91.1 µM (inactive)

Q: With `COc1ccc(-c2[nH]nc(O)c2NC(=O)c2ccc(C)cc2)cc1` as the compound, how does the IC50 [6] read?
A: > 128 µM (inactive)

Q: Which AC50 [7] does the source give for `CN(C)CC#Cc1cccc(-c2nc(C(=O)NCc3ccc(Oc4ccccc4)cc3)cc3c2[C@@H](CCO)N([S+]([O-])C(C)(C)C)C3)c1` (some centres not stated) here?
A: 0.697 µM (active)

Q: With `CN1C(=O)c2cc(NC(=O)C3CC3)ccc2OC[C@@H]2O[C@H](CC(=O)NC3CCC3)CC[C@H]21` as the compound, how does the AC50 [3] read?
A: 9.32 µM (active)

Q: With `CCOC(=O)c1cc2c(c(-c3cccc(C#CCN(C)C)c3)n1)[C@@H](CCO)N([S+]([O-])C(C)(C)C)C2` (some centres not stated) as the compound, how does the AC50 [7] read?
A: 16.2 µM (active)

Q: With `COc1ccc(NC(=O)N(C)C[C@@H]2OCCCC[C@H](C)Oc3ccc(NC(=O)NC4CCCCC4)cc3C(=O)N([C@H](C)CO)C[C@@H]2C)cc1` as the compound, how does the AC50 [8] read?
A: 18.2 µM (active)

Q: Which results are given for `C[C@H](CO)N1C[C@H](C)[C@H](CN(C)C(=O)Nc2ccc(C(F)(F)F)cc2)OCCCC[C@H](C)Oc2ccc(NC(=O)CCC(F)(F)F)cc2C1=O`?
A: AC50 [9]: 32.9 µM (active); AC50 [8]: 1.29 µM (active); AC50 [10]: 35.6 µM (active)

Q: Which results are given for `Cn1cnnc1SCC(=O)Nc1sc2c(c1C(N)=O)CCC2`?
A: IC50 [11]: 3.16 µM (active); IC50 [12]: 13.7 µM (active); IC50 (Bcl-2-like protein 1): > 36.3 µM (not active); IC50 [13]: 2.43 µM (active); IC50 [14]: > 66.6 µM (inactive); IC50 [15]: 2.77 µM (active); IC50 [16]: 8.58 µM (active)
